Reference: ChEMBL document CHEMBL1201862, “PubChem BioAssay data set” (2004)
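Each compound was tested at five concentrations against cells in 96-well plates for 48 hours. Here, GI50 denotes the concentration required for 50% inhibition of growth.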 Activity calls are given as the source filed them. Cut-off read from the data, not from the text of the source: active = GI50 up to about 1.1 µM and inactive = higher.

Experiments:
Assay in all cases: growth of human tumour cells (NCI), 48 h
786-0 = tested on: 786-0
A498 = tested on: A498
A549 = tested on: A549
ACHN = tested on: ACHN
CAKI-1 = tested on: CAKI-1
CCRF-CEM = tested on: CCRF-CEM
COLO 205 = tested on: COLO 205
DMS-114 = tested on: DMS-114
DMS-273 = tested on: DMS-273
EKVX = tested on: EKVX
HCC 2998 = tested on: HCC 2998
HCT-15 = tested on: HCT-15
HL-60 = tested on: HL-60
HOP-18 = tested on: HOP-18
HOP-62 = tested on: HOP-62
HOP-92 = tested on: HOP-92
HT-29 = tested on: HT-29
IGROV-1 = tested on: IGROV-1
K562 = tested on: K562
KM-20L2 = tested on: KM-20L2
KM12 = tested on: KM12
LOX IMVI = tested on: LOX IMVI
LXFL 529 = tested on: LXFL 529
M14 = tested on: M14
M19-MEL = tested on: M19-MEL
MOLT-4 = tested on: MOLT-4
Malme-3M = tested on: Malme-3M
NCI-H226 = tested on: NCI-H226
NCI-H23 = tested on: NCI-H23
NCI-H460 = tested on: NCI-H460
NCI-H522 = tested on: NCI-H522
OVCAR-3 = tested on: OVCAR-3
OVCAR-4 = tested on: OVCAR-4
OVCAR-5 = tested on: OVCAR-5
OVCAR-8 = tested on: OVCAR-8
RPMI-8226 = tested on: RPMI-8226
RXF 393 = tested on: RXF 393
SF-268 = tested on: SF-268
SF-295 = tested on: SF-295
SF-539 = tested on: SF-539
SK-MEL-28 = tested on: SK-MEL-28
SK-MEL-2 = tested on: SK-MEL-2
SK-MEL-5 = tested on: SK-MEL-5
SK-OV-3 = tested on: SK-OV-3
SN12C = tested on: SN12C
SNB-19 = tested on: SNB-19
SNB-75 = tested on: SNB-75
SW-620 = tested on: SW-620
TK-10 = tested on: TK-10
U-251 = tested on: U-251
UACC-257 = tested on: UACC-257
UACC-62 = tested on: UACC-62
UO-31 = tested on: UO-31
XF498 = tested on: XF498
DLD-1 = tested on: DLD-1
HCT-116 = tested on: HCT-116
MCF7 = tested on: MCF7
NCI/ADR-RES = tested on: NCI/ADR-RES
SNB-78 = tested on: SNB-78
SR = tested on: SR

## COC(=O)[C@H](CC(C)C)NC(=O)[C@H](Cc1ccccc1)N1CC2C=CC1C2 (stereo not given in full)
786-0
  GI50: > 100 µM (inactive)
A498
  GI50: > 100 µM (inactive)
A549
  GI50: > 100 µM (inactive)
ACHN
  GI50: > 100 µM (inactive)
CAKI-1
  GI50: > 100 µM (inactive)
CCRF-CEM
  GI50: > 100 µM (inactive)
COLO 205
  GI50: > 100 µM (inactive)
DMS-114
  GI50: > 100 µM (inactive)
DMS-273
  GI50: > 100 µM (inactive)
EKVX
  GI50: > 100 µM (inactive)
HCC 2998
  GI50: > 100 µM (inactive)
HCT-15
  GI50: > 100 µM
HL-60
  GI50: 47.6 µM (inactive)
HOP-18
  GI50: > 100 µM (inactive)
HOP-62
  GI50: > 100 µM (inactive)
HOP-92
  GI50: 96.6 µM (inactive)
HT-29
  GI50: > 100 µM (inactive)
IGROV-1
  GI50: > 100 µM (inactive)
K562
  GI50: > 100 µM (inactive)
KM-20L2
  GI50: > 100 µM (inactive)
KM12
  GI50: > 100 µM (inactive)
LOX IMVI
  GI50: > 100 µM (inactive)
LXFL 529
  GI50: > 100 µM (inactive)
M14
  GI50: > 100 µM (inactive)
M19-MEL
  GI50: > 100 µM (inactive)
MOLT-4
  GI50: > 100 µM (inactive)
Malme-3M
  GI50: > 100 µM (inactive)
NCI-H226
  GI50: > 100 µM (inactive)
NCI-H23
  GI50: > 100 µM (inactive)
NCI-H460
  GI50: > 100 µM (inactive)
NCI-H522
  GI50: > 100 µM (inactive)
OVCAR-3
  GI50: > 100 µM (inactive)
OVCAR-4
  GI50: > 100 µM (inactive)
OVCAR-5
  GI50: > 100 µM (inactive)
OVCAR-8
  GI50: > 100 µM (inactive)
RPMI-8226
  GI50: 29.1 µM (inactive)
RXF 393
  GI50: > 100 µM (inactive)
SF-268
  GI50: > 100 µM (inactive)
SF-295
  GI50: > 100 µM (inactive)
SF-539
  GI50: > 100 µM (inactive)
SK-MEL-28
  GI50: > 100 µM (inactive)
SK-MEL-2
  GI50: > 100 µM (inactive)
SK-MEL-5
  GI50: > 100 µM (inactive)
SK-OV-3
  GI50: > 100 µM (inactive)
SN12C
  GI50: > 100 µM (inactive)
SNB-19
  GI50: > 100 µM (inactive)
SNB-75
  GI50: > 100 µM (inactive)
SW-620
  GI50: > 100 µM (inactive)
TK-10
  GI50: > 100 µM (inactive)
U-251
  GI50: > 100 µM (inactive)
UACC-257
  GI50: > 100 µM (inactive)
UACC-62
  GI50: > 100 µM (inactive)
UO-31
  GI50: > 100 µM (inactive)
XF498
  GI50: > 100 µM (inactive)

## O=C(O)CNS(=O)(=O)c1ccc(NC(=O)Nc2ccccc2)cc1
A498
  GI50: > 100 µM (inactive)
A549
  GI50: > 100 µM (inactive)
CAKI-1
  GI50: > 100 µM (inactive)
CCRF-CEM
  GI50: > 100 µM (inactive)
COLO 205
  GI50: > 100 µM (inactive)
DLD-1
  GI50: > 100 µM (inactive)
DMS-114
  GI50: > 100 µM (inactive)
DMS-273
  GI50: > 100 µM (inactive)
EKVX
  GI50: > 100 µM (inactive)
HCC 2998
  GI50: > 100 µM (inactive)
HCT-116
  GI50: > 100 µM (inactive)
HCT-15
  GI50: > 100 µM
HL-60
  GI50: > 31.6 µM (inactive)
HOP-18
  GI50: > 100 µM (inactive)
HOP-62
  GI50: > 100 µM (inactive)
HOP-92
  GI50: > 100 µM (inactive)
HT-29
  GI50: > 100 µM (inactive)
IGROV-1
  GI50: > 37.6 µM (inactive)
K562
  GI50: > 100 µM (inactive)
KM-20L2
  GI50: > 100 µM (inactive)
KM12
  GI50: > 100 µM (inactive)
LOX IMVI
  GI50: > 100 µM (inactive)
M19-MEL
  GI50: > 38 µM (inactive)
MCF7
  GI50: > 100 µM (inactive)
MOLT-4
  GI50: > 100 µM (inactive)
Malme-3M
  GI50: > 100 µM (inactive)
NCI-H226
  GI50: > 100 µM (inactive)
NCI-H23
  GI50: > 100 µM (inactive)
NCI-H460
  GI50: > 100 µM (inactive)
NCI-H522
  GI50: > 100 µM (inactive)
NCI/ADR-RES
  GI50: > 100 µM (inactive)
OVCAR-3
  GI50: > 100 µM (inactive)
OVCAR-4
  GI50: > 100 µM (inactive)
OVCAR-5
  GI50: > 100 µM (inactive)
OVCAR-8
  GI50: > 100 µM (inactive)
RPMI-8226
  GI50: > 100 µM (inactive)
RXF 393
  GI50: > 100 µM (inactive)
SF-268
  GI50: > 100 µM (inactive)
SF-295
  GI50: > 100 µM (inactive)
SF-539
  GI50: > 100 µM (inactive)
SK-MEL-28
  GI50: > 100 µM (inactive)
SK-MEL-2
  GI50: > 100 µM (inactive)
SK-MEL-5
  GI50: > 100 µM (inactive)
SK-OV-3
  GI50: > 100 µM (inactive)
SN12C
  GI50: > 100 µM (inactive)
SNB-19
  GI50: > 100 µM (inactive)
SNB-75
  GI50: > 100 µM (inactive)
SNB-78
  GI50: > 100 µM (inactive)
SW-620
  GI50: > 100 µM (inactive)
U-251
  GI50: > 100 µM (inactive)
UACC-257
  GI50: > 100 µM (inactive)
UACC-62
  GI50: > 38.3 µM (inactive)
UO-31
  GI50: > 100 µM (inactive)
XF498
  GI50: > 100 µM (inactive)

## CC1=Cc2cccc(C)c2C(=O)C1=O [O-HIBISCANONE]
786-0
  GI50: 2.88 µM (inactive)
A498
  GI50: 17.1 µM (inactive)
A549
  GI50: 6.81 µM (inactive)
ACHN
  GI50: 5.12 µM (inactive)
CAKI-1
  GI50: 16.5 µM (inactive)
CCRF-CEM
  GI50: 0.379 µM (active)
COLO 205
  GI50: 1.91 µM (inactive)
DLD-1
  GI50: 2.13 µM (inactive)
DMS-273
  GI50: 19.9 µM (inactive)
EKVX
  GI50: 8.11 µM (inactive)
HCC 2998
  GI50: 14.6 µM (inactive)
HCT-116
  GI50: 2.73 µM (inactive)
HCT-15
  GI50: 6.11 µM
HL-60
  GI50: 0.481 µM (active)
HOP-18
  GI50: 1.42 µM (inactive)
HOP-62
  GI50: 17.5 µM (inactive)
HOP-92
  GI50: 1.49 µM (inactive)
HT-29
  GI50: 2.79 µM (inactive)
IGROV-1
  GI50: 15.6 µM (inactive)
K562
  GI50: 0.617 µM (active)
KM-20L2
  GI50: 18.9 µM (inactive)
KM12
  GI50: 4.71 µM (inactive)
LOX IMVI
  GI50: 8.77 µM (inactive)
LXFL 529
  GI50: 2.11 µM (inactive)
M14
  GI50: 4.67 µM (inactive)
M19-MEL
  GI50: 7.67 µM (inactive)
MOLT-4
  GI50: 0.52 µM (active)
Malme-3M
  GI50: 1.8 µM (inactive)
NCI-H226
  GI50: 15.8 µM (inactive)
NCI-H23
  GI50: 11.1 µM (inactive)
NCI-H460
  GI50: 20.5 µM (inactive)
NCI-H522
  GI50: 4.72 µM (inactive)
OVCAR-3
  GI50: 4.37 µM (inactive)
OVCAR-4
  GI50: 5.31 µM (inactive)
OVCAR-5
  GI50: 19 µM (inactive)
OVCAR-8
  GI50: 5.85 µM (inactive)
RPMI-8226
  GI50: 1.06 µM (active)
RXF 393
  GI50: 4.66 µM (inactive)
SF-268
  GI50: 11.3 µM (inactive)
SF-295
  GI50: 5.14 µM (inactive)
SF-539
  GI50: 6.56 µM (inactive)
SK-MEL-28
  GI50: 16 µM (inactive)
SK-MEL-2
  GI50: 17.3 µM (inactive)
SK-MEL-5
  GI50: 2.28 µM (inactive)
SK-OV-3
  GI50: 18.5 µM (inactive)
SN12C
  GI50: 19.5 µM (inactive)
SNB-19
  GI50: 19.8 µM (inactive)
SNB-75
  GI50: 15.8 µM (inactive)
SNB-78
  GI50: 26 µM (inactive)
SR
  GI50: 260 nM (active)
SW-620
  GI50: 1.28 µM (inactive)
TK-10
  GI50: 2.39 µM (inactive)
U-251
  GI50: 10.8 µM (inactive)
UACC-257
  GI50: 2.16 µM (inactive)
UACC-62
  GI50: 5.58 µM (inactive)
UO-31
  GI50: 13.9 µM (inactive)
XF498
  GI50: 5.2 µM (inactive)
